Assays:
Type in all cases: biochemical
Settings in all cases: recombinant human kinase, 1 μM ATP
IGF-1 R = target: T1, IGF-1 R (Homo sapiens, UniProt P08069); assay: 33PanQinase protein kinase activity assay, IGF-1 R
T1 construct: made in house; host or cells: Sf9 insect cells (baculovirus)
Description: (§1) The effect of the farazanopyrazine derivatives was tested on recombinant, human protein kinases. All protein kinases were expressed in Sf9 insect cells as human recombinant GST-fusion proteins or as His-tagged proteins by means of the baculovirus expression system. Protein kinases were purified by affinity chromatography using either GSH-agarose or Ni-NTH-agarose. The purity and identity of each was checked by SDS-PAGE/silver staining and by western blot analysis with specific antibodies.
(§2) A proprietary protein kinase assay (^33 PanQinase® Activity Assay) was used for measuring the kinase activity. All kinase assays were performed in 96-well FlashPlates™ in a 50 μl reaction volume. The assay for all enzymes contained 60 mM HEPES-NaOH, pH 7.5, 3 mM MgCl2, 3 mM MnCl2, 3 μM Na-orthovanadate, 1.2 mM DTT, 50 μg/ml PEG20000 and 1 μM [γ-^33P]-ATP (approx. 5×10^5 cpm per well).
(§3) The reaction cocktails were incubated at 30° C. for 80 minutes. The reaction was stopped with 50 μl of 2% (v/v) H3PO4, plates were aspirated and washed two times with 200 μl of 0.9% (w/v) NaCl. Incorporation of 33Pi was determined with a microplate scintillation counter. All assays were performed with a BeckmanCoulter/Sagian robotic system.

SRC kinase = target: T2, SRC kinase (Homo sapiens, UniProt P12931); assay: 33PanQinase protein kinase activity assay, SRC
T2 construct: made in house; host or cells: Sf9 insect cells (baculovirus)
T2 sequence (P12931 whole entry): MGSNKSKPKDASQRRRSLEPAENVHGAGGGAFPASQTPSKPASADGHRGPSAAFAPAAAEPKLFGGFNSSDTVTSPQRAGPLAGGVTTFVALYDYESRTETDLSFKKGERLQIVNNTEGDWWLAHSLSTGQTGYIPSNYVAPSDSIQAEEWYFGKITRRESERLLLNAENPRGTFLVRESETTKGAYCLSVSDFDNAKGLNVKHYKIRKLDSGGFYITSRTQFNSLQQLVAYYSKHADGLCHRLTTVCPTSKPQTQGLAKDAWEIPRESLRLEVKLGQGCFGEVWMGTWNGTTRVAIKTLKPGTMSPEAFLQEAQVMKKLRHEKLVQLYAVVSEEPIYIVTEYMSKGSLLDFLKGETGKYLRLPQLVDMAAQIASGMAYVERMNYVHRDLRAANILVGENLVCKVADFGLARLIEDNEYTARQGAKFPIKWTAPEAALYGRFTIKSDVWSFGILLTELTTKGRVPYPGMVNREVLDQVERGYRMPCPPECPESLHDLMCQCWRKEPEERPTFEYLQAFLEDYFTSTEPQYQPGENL
Description: as §1, §2, §3

VEGF-R2 = target: T3, VEGF-R2 (Homo sapiens, UniProt P35968); assay: 33PanQinase protein kinase activity assay, VEGF-R2
T3 construct: made in house; host or cells: Sf9 insect cells (baculovirus)
T3 sequence (P35968 20-1356): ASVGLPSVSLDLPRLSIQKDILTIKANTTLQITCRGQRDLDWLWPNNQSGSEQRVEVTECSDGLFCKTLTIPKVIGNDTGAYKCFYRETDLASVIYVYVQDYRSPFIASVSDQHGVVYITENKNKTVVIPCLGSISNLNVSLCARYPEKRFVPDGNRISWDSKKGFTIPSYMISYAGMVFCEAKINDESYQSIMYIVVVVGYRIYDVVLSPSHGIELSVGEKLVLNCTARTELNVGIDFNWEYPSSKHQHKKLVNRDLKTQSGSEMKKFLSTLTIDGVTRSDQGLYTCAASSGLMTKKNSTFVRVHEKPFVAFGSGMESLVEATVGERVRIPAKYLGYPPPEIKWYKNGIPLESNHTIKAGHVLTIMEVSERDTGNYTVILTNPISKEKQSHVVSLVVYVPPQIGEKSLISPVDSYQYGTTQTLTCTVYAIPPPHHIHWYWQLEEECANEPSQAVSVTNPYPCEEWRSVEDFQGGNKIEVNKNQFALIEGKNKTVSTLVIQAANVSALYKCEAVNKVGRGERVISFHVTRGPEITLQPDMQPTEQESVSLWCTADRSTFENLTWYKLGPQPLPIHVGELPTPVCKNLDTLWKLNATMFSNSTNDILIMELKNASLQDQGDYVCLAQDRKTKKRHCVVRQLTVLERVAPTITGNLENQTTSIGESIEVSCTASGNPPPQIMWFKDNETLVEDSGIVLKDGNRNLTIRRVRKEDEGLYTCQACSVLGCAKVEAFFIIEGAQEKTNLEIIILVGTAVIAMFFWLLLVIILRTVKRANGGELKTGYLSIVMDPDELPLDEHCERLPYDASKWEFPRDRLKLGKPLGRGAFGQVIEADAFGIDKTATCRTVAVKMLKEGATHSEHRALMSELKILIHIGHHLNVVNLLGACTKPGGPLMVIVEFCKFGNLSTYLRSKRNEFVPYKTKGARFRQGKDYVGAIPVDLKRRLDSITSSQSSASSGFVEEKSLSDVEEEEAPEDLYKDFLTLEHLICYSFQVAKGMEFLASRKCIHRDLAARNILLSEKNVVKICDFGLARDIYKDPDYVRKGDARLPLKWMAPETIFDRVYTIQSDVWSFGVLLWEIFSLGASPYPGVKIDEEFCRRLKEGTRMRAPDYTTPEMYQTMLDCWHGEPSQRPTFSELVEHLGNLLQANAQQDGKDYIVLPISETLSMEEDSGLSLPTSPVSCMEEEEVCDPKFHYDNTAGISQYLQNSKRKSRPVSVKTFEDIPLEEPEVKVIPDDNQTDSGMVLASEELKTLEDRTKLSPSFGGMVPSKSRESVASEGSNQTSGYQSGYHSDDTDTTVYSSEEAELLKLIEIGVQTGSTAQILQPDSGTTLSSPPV
Description: as §1, §2, §3

T1 sequence (P08069 31-1367): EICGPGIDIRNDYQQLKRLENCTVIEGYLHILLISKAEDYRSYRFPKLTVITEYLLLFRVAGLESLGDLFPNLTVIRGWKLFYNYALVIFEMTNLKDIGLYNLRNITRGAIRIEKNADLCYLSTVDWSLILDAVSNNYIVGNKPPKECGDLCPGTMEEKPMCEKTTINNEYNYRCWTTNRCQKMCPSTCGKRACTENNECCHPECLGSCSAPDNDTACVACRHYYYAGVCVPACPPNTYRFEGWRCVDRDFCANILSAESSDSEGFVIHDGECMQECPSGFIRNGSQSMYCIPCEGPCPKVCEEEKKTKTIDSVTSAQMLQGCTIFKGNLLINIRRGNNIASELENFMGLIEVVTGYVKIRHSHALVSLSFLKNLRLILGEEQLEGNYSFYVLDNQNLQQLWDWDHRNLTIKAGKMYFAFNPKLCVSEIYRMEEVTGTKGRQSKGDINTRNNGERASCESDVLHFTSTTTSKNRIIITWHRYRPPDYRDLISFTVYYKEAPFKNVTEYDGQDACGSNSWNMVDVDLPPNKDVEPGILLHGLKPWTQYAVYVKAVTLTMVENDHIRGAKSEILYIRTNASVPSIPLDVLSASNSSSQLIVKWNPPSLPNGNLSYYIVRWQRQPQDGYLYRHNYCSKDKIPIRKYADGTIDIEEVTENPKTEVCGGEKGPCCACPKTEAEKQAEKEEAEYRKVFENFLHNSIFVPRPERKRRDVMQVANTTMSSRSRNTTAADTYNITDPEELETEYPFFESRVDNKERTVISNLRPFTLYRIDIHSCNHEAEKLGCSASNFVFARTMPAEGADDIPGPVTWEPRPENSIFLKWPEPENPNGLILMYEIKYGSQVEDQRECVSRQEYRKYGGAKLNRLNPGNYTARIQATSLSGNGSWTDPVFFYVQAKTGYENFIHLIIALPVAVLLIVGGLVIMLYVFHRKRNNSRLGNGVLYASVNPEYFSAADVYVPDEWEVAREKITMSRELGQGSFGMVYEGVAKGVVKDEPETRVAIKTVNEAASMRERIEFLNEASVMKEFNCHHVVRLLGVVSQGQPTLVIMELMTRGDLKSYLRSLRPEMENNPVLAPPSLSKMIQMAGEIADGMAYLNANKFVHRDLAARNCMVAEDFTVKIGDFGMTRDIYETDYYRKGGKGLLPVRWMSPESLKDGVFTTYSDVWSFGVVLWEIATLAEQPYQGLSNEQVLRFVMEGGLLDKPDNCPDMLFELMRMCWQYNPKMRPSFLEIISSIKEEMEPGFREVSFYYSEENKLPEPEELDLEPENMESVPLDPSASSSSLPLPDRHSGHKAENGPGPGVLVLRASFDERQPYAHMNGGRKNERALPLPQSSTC

## COc1cccc(C=NNc2nc3nonc3nc2Nc2ccc(Cl)c(Cl)c2)c1O [Example 192]
IGF-1 R
  IC50: < 1000 nM

## Clc1ccc(Nc2nc3nonc3nc2NN=Cc2ccc(-c3ccccc3)o2)cc1Cl [Example 195, (3,4-Dichloro-phenyl)-{6-[N′-(5-phenyl-furan-2-ylmethylene)-hydrazino]-[1,2,5]oxadiazolo[3,4-b]pyrazin-5-yl}-amine]
SRC kinase
  IC50: < 1000 nM

## COc1ccc(O)c(C=NNc2nc3nonc3nc2Nc2ccc(F)c(Cl)c2)c1 [Example 167]
SRC kinase
  IC50: < 1000 nM

## O=C(O)c1cccc(C=NNc2nc3nonc3nc2Nc2ccc(Cl)c(Cl)c2)c1 [Example 186]
SRC kinase
  IC50: < 1000 nM
IGF-1 R
  IC50: < 1000 nM
VEGF-R2
  IC50: < 2000 nM

## Fc1ccc(Nc2nc3nonc3nc2NN=Cc2ccc(-c3ccc(Cl)cc3Cl)o2)cc1 [Example 15, (6-{N′-[5-(2,4-Dichloro-phenyl)-furan-2-ylmethylene]-hydrazino}-[1,2,5]oxadiazolo [3,4-b]pyrazin-5-yl)-(4-fluoro-phenyl)-amine]
SRC kinase
  IC50: < 1000 nM
VEGF-R2
  IC50: < 2000 nM

## O=[N+]([O-])c1cccc(-c2ccc(C=NNc3nc4nonc4nc3Nc3ccc(F)cc3)o2)c1 [Example 135, (4-Fluoro-phenyl)-(6-{N′-[5-(3-nitro-phenyl)-furan-2-ylmethylene]-hydrazino}-[1,2,5]oxadiazolo [3,4-b]pyrazin-5-yl)-amine]
SRC kinase
  IC50: < 1000 nM
IGF-1 R
  IC50: < 1000 nM

## Fc1ccc(Nc2nc3nonc3nc2NN=Cc2cc3ccccc3o2)cc1Cl [Example 172, [6-(N′-Benzofuran-2-ylmethylene-hydrazino)-[1,2,5]oxadiazolo[3,4-b]pyrazin-5-yl]-(3-chloro-4-fluoro-phenyl)-amine]
SRC kinase
  IC50: < 1000 nM
IGF-1 R
  IC50: < 1000 nM
VEGF-R2
  IC50: < 2000 nM

## O=[N+]([O-])c1cccc(-c2ccc(C=NNc3nc4nonc4nc3Nc3ccccc3)o2)c1 [Example 90, (6-{N′-[5-(3-Nitro-phenyl)-furan-2-ylmethylene]-hydrazino}-[1,2,5]oxadiazolo [3,4-b]pyrazin-5-yl)-phenyl-amine]
SRC kinase
  IC50: < 1000 nM

## COc1ccc(O)c(C=NNc2nc3nonc3nc2Nc2ccc(Cl)c(Cl)c2)c1 [Example 191]
SRC kinase
  IC50: < 1000 nM
IGF-1 R
  IC50: < 1000 nM
VEGF-R2
  IC50: < 2000 nM

## C(=NNc1nc2nonc2nc1Nc1ccccc1)c1cc2ccccc2o1 [Example 88, [6-(N′-Benzofuran-2-ylmethylene-hydrazino)-(1,2,5]oxadiazolo[3,4-b]pyrazin-5-yl]-phenyl-amine]
SRC kinase
  IC50: < 1000 nM

## Cc1ccc(Nc2nc3nonc3nc2NN=Cc2ccc(-c3cc(C)cc([N+](=O)[O-])c3C)o2)cc1 [Example 33, (6-[N′-[5-(2,5-Dimethyl-3-nitro-phenyl)-furan-2-ylmethylene]-hydrazino}-[1,2,5]oxadiazolo[3,4-b]pyrazin-5-yl)-p-tolyl-amine]
SRC kinase
  IC50: < 1000 nM

## O=C1Nc2ccccc2C1=NNc1nc2nonc2nc1Nc1ccc(Cl)c(Cl)c1 [Example 201, 3-{[6-(3,4-Dichloro-phenylamino)-[1,2,5]oxadiazolo [3,4-b]pyrazin-5-yl]-hydrazono}-1,3-dihydro-indol-2-one]
SRC kinase
  IC50: < 1000 nM
IGF-1 R
  IC50: < 1000 nM
VEGF-R2
  IC50: < 2000 nM

## Oc1c(I)cc(I)cc1C=NNc1nc2nonc2nc1Nc1cccc(Br)c1 [Example 35]
SRC kinase
  IC50: < 1000 nM
IGF-1 R
  IC50: < 1000 nM
VEGF-R2
  IC50: < 2000 nM

## NC(=O)c1cccc(-c2ccc(C=NNc3nc4nonc4nc3Nc3ccc(F)c(Cl)c3)o2)c1 [Example 178]
SRC kinase
  IC50: < 1000 nM
IGF-1 R
  IC50: < 1000 nM
VEGF-R2
  IC50: < 2000 nM

## Clc1ccc(Nc2nc3nonc3nc2NN=Cc2cc3ccccc3o2)cc1Cl [Example 193, [6-(N′-Benzofuran-2-ylmethylene-hydrazino)-[1,2,5]oxadiazolo[3,4-b]pyrazin-5-yl]-(3,4-dichloro-phenyl)-amine]
SRC kinase
  IC50: < 1000 nM
IGF-1 R
  IC50: < 1000 nM
VEGF-R2
  IC50: < 2000 nM

## Clc1ccc(-c2ccc(C=NNc3nc4nonc4nc3Nc3ccc(Cl)c(Cl)c3)o2)cc1 [Example 200, (6-{N-[5-(4-Chloro-phenyl)-furan-2-ylmethylene]-hydrazino}-[1,2,5]-oxadiazolo[3,4-b]pyrazin-5-yl)-(3,4-dichloro-phenyl)-amine]
SRC kinase
  IC50: < 1000 nM
IGF-1 R
  IC50: < 1000 nM
VEGF-R2
  IC50: < 2000 nM

## O=c1[nH]c2ccc(Nc3nc4nonc4nc3NN=Cc3cc(I)cc(I)c3OCc3ccc(Cl)cc3Cl)cc2[nH]1 [Example 55, 5-(6-{N′-[2-(2,4-Dichloro-benzyloxy)-3,5-diiodo-benzylidene]-hydrazino}-[1,2,5]oxadiazolo[3,4-b]pyrazin-5-ylamino)-1,3-dihydro-benzoimidazol-2-one]
SRC kinase
  IC50: < 1000 nM
IGF-1 R
  IC50: < 1000 nM

## Oc1c(Br)cc(Br)cc1C=NNc1nc2nonc2nc1Nc1ccc(Cl)cc1 [Example 30]
SRC kinase
  IC50: < 1000 nM
IGF-1 R
  IC50: < 1000 nM

## Oc1c(Br)cc(Cl)cc1C=NNc1nc2nonc2nc1Nc1ccc(Cl)c(Cl)c1 [Example 14]
SRC kinase
  IC50: < 1000 nM
IGF-1 R
  IC50: < 1000 nM
VEGF-R2
  IC50: < 2000 nM

## O=[N+]([O-])c1cc(-c2ccc(C=NNc3nc4nonc4nc3Nc3cccc(C(F)(F)F)c3)o2)ccc1Cl [Example 36, (6-{N-[5-(4-Chloro-3-nitro-phenyl)-furan-2-ylmethylene]-hydrazino}-[1,2,5]oxadiazolo [3,4-b]pyrazin-5-yl)-(3-trifluoromethyl-phenyl)-amine]
SRC kinase
  IC50: < 1000 nM
IGF-1 R
  IC50: < 1000 nM

## O=C(O)c1ccc(C=NNc2nc3nonc3nc2Nc2cccc(Cl)c2)cc1 [Example 143]
IGF-1 R
  IC50: < 1000 nM

## O=C1Nc2ccccc2C1=NNc1nc2nonc2nc1Nc1ccc(F)c(Cl)c1 [Example 182, 3-{1[6-(3-Chloro-4-fluoro-phenylamino)-[1,2,5]oxadiazolo[3,4-b]pyrazin-5-yl]-hydrazono}-1,3-dihydro-indol-2-one]
SRC kinase
  IC50: < 1000 nM
IGF-1 R
  IC50: < 1000 nM
VEGF-R2
  IC50: < 2000 nM

## CCOC(=O)c1ccc(Nc2nc3nonc3nc2NN=Cc2cccc([N+](=O)[O-])c2O)cc1 [Example 37, 4-{6-[N′-(2-Hydroxy-3-nitro-benzylidene)-hydrazino]-[1,2,5]oxadiazolo[3,4-b]pyrazin-5-ylamino}-benzoic Acid Ethyl Ester]
SRC kinase
  IC50: < 1000 nM

## O=[N+]([O-])c1cccc(-c2ccc(C=NNc3nc4nonc4nc3Nc3ccc(F)c(Cl)c3)o2)c1 [Example 174, (3-Chloro-4-fluoro-phenyl)-(6-{N′-[5-(3-nitro-phenyl)-furan-2-ylmethylene]-hydrazino}-[1,2,5]oxadiazolo[3,4-b]pyrazin-5-yl)-amine]
SRC kinase
  IC50: < 1000 nM
IGF-1 R
  IC50: < 1000 nM
VEGF-R2
  IC50: < 2000 nM

## O=[N+]([O-])c1ccc(-c2ccc(C=NNc3nc4nonc4nc3Nc3ccc(F)cc3)o2)cc1 [Example 39, (4-Fluoro-phenyl)-(6-{N′-[5-(4-nitro-phenyl)-furan-2-ylmethylene]-hydrazino}-[1,2,5]oxadiazolo[3,4-b]pyrazin-5-yl)-amine]
SRC kinase
  IC50: < 1000 nM
IGF-1 R
  IC50: < 1000 nM

## O=C(O)c1ccc(-c2ccc(C=NNc3nc4nonc4nc3Nc3ccc(F)c(Cl)c3)o2)cc1 [Example 179]
SRC kinase
  IC50: < 1000 nM
IGF-1 R
  IC50: < 1000 nM
VEGF-R2
  IC50: < 2000 nM

## COc1cc(Br)cc(C=NNc2nc3nonc3nc2Nc2cccc(Cl)c2)c1O [Example 152]
SRC kinase
  IC50: < 1000 nM
IGF-1 R
  IC50: < 1000 nM
VEGF-R2
  IC50: < 2000 nM

## Fc1ccc(Nc2nc3nonc3nc2NN=Cc2ccc(-c3ccccc3)o2)cc1Cl [Example 175, (3-Chloro-4-fluoro-phenyl)-{6-[N′-(5-phenyl-furan-2-ylmethylene)-hydrazino]-[1,2,5]oxadiazolo [3,4-b]pyrazin-5-yl}-amine]
SRC kinase
  IC50: < 1000 nM
IGF-1 R
  IC50: < 1000 nM

## O=C(O)c1ccc(-c2ccc(C=NNc3nc4nonc4nc3Nc3ccc(F)cc3)o2)cc1 [Example 139]
SRC kinase
  IC50: < 1000 nM
IGF-1 R
  IC50: < 1000 nM

## Clc1ccc(Nc2nc3nonc3nc2NN=Cc2ccco2)cc1Cl [Example 197, (3,4-Dichloro-phenyl)-[6-(N′-furan-2-ylmethylene-hydrazino)-[1,2,5]-oxadiazolo[3,4-b]pyrazin-5-yl]-amine]
SRC kinase
  IC50: < 1000 nM
IGF-1 R
  IC50: < 1000 nM

## Fc1ccc(Nc2nc3nonc3nc2NN=Cc2ccc(-c3ccc(Cl)cc3)o2)cc1Cl [Example 180, (3-Chloro-4-fluoro-phenyl)-(6-{N′-[5-(4-chloro-phenyl)-furan-2-yl-methylene]-hydrazino}-[1,2,5]oxadiazolo [3,4-b]pyrazin-5-yl)-amine]
SRC kinase
  IC50: < 1000 nM
IGF-1 R
  IC50: < 1000 nM
VEGF-R2
  IC50: < 2000 nM

## Oc1c(Br)cc(Br)cc1C=NNc1nc2nonc2nc1Nc1cccc(Cl)c1 [Example 151]
SRC kinase
  IC50: < 1000 nM
IGF-1 R
  IC50: < 1000 nM

## O=[N+]([O-])c1cccc(-c2ccc(C=NNc3nc4nonc4nc3Nc3cccc(Cl)c3)o2)c1 [Example 155, (3-Chloro-phenyl)-(6-{N′-[5-(3-nitro-phenyl)-furan-2-ylmethylene]-hydrazino}-[1,2,5]oxadiazolo[3,4-b]pyrazin-5-yl)-amine]
SRC kinase
  IC50: < 1000 nM
IGF-1 R
  IC50: < 1000 nM
VEGF-R2
  IC50: < 2000 nM

## Cc1cc(C)c([N+](=O)[O-])cc1-c1ccc(C=NNc2nc3nonc3nc2Nc2ccccc2F)o1 [Example 29, (6-{N′-[5-(2,4-Dimethyl-5-nitro-phenyl)-furan-2-ylmethylene]-hydrazino}-[1,2,5]oxadiazolo[3,4-b]pyrazin-5-yl)-(2-fluoro-phenyl)-amine]
SRC kinase
  IC50: < 1000 nM
IGF-1 R
  IC50: < 1000 nM
